Data from US9981960B2, “Pyrrolidine compound and application as melanocortin receptor agonist” (MITSUBISHI TANABE PHARMA CORPORATION, priority 2014, dated 2018).

Molecular target: T1, Human MC1R (Homo sapiens, UniProt Q01726)
T1 construct: endogenous in cells; host or cells: human melanoma cell line HBL
Test: MCR agonist measurement (cAMP measurement), human MC1R agonist activity in human melanoma cell line HBL
Type: cell-based
Details: HBL cells; for EC50: 37° C. for 30 minutes, intracellular cAMP by fluorescence method; for Human MC1R IA %: Intrinsic Activity, vehicle cAMP = 0%, αMSH at 10^-6 M = 100%
Experimental: (1) Method for Culturing Cells
Human MC1R agonist activity measurement was carried out by using human melanoma cell line HBL. Culture of HBL: F-10 Nutrient Mixture containing 10% FCS and Penicillin-streptomycin was used in the culture.
(2) cAMP Assay and Data Calculation
Each compound solution having each concentration was mixed with cAMP assay buffer (HBSS (Hank's Balanced Salt Solution) containing 10 mM HEPES and 0.1% BSA), and dispensed into 96 well plate. HBL was suspended in cAMP assay buffer containing 0.5 mM IBMX so that the concentrate became 5×10^4/mL, dispensed into the above 96 well plate, then mixed, left to stand at 37° C. for 30 minutes, and then the intracellular […] concentration was measured by fluorescence method using Envision (ex. 320 nm, em. 590 nm and 665 nm).

T1 sequence (Q01726 whole entry): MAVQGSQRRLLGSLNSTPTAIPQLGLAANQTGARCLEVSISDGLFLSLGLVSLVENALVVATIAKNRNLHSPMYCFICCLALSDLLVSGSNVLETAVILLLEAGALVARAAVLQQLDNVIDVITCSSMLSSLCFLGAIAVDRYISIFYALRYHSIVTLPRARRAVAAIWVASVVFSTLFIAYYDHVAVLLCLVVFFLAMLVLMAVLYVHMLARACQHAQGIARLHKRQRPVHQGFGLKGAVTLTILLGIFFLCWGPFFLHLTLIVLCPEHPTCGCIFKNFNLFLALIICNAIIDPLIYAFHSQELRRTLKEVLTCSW

| SMILES | EC50 | Human MC1R IA % |
| --- | --- | --- |
| COC[C@H]1CN(C(=O)[C@]2(F)CN(C3CCCC3)C[C@H]2c2ccc(OC)cc2)C[C@@H]1c1ccc(OC(F)(F)F)cc1N1CCC(C(=O)O)CC1 [Example 130] | 0.011 µM | 76% |
| CCC(=O)N1CCC(N2C[C@@H](c3ccc(OC)cc3)[C@](F)(C(=O)N3C[C@H](COC)[C@@H](c4ccc(C(F)(F)F)cc4N4CCC(C(=O)O)CC4)C3)C2)CC1 [Example 327] | 0.023 µM | 67% |
| COc1ccc([C@@H]2CN(C(C)(C)C)C[C@@]2(F)C(=O)N2C[C@H](C(=O)O)[C@@H](c3ccc(C(F)(F)F)cc3N3CCC(C(=O)OC(C)(C)C)CC3)C2)cc1 [Example 223, (3R,4S)-4-{2-[4-(tert-butoxycarbonyl)piperidin-1-yl]-4-(trifluoromethyl)phenyl}-1-{[(3R,4R)-1-tert-butyl-3-fluoro-4-(4-methoxyphenyl)pyrrolidin-3-yl]carbonyl}pyrrolidin-3-carboxylic acid] | 0.09 µM | 71% |
| CCO[C@H]1CC[C@@H](N2C[C@@H](c3ccc(OC)cc3)[C@](F)(C(=O)N3C[C@H](COC)[C@@H](c4ccc(C(F)(F)F)cc4N4CCC(C(=O)O)CC4)C3)C2)CC1 [Example 119] | 0.015 µM | 53% |
| COc1ccc([C@@H]2CN([C@H]3CC[C@H](OC)CC3)C[C@@]2(F)C(=O)N2CCC(c3ccc(C(F)(F)F)cc3N3CCC(C(=O)O)CC3)CC2)cc1 [Example 98] | 0.015 µM | 89% |
| COc1ccc([C@@H]2CN(C(C)(C)C)C[C@@]2(F)C(=O)N2CCC(c3ccc(C(F)F)cc3N3CCC(C(=O)O)CC3)CC2)cc1 [Example 198] | 0.045 µM | 66% |
| COC[C@@H]1C[C@@H](c2ccc(C(F)(F)F)cc2N2CCC(C(=O)O)CC2)CN1C(=O)[C@]1(F)CN(C2CCCCC2)C[C@H]1c1ccc(OC)cc1 [Example 138] | 0.00098 µM | 111% |
| COc1ccc([C@@H]2CN(C3CCN(C(CF)CF)CC3)C[C@@]2(F)C(=O)N2CC[C@@H](c3ccc(C(F)(F)F)cc3N3CCC(C(=O)O)CC3)C2)cc1 [Example 219] | 0.0067 µM | 104% |
| COC[C@@H]1C[C@@H](c2ccc(Cl)cc2N2CCC(C(=O)O)CC2)CN1C(=O)[C@]1(F)CN([C@H]2CC[C@H](OC)CC2)C[C@H]1c1ccc(OC)cc1 [Example 111] | 0.0059 µM | 83% |
| COC[C@@H]1C[C@@H](c2ccc(C(F)(F)F)cc2N2CCC(C(=O)O)CC2)CN1C(=O)[C@]1(F)CN(C2CCOCC2)C[C@H]1c1ccc(OC)cc1 [Example 137] | 0.0073 µM | 106% |
| COc1ccc([C@@H]2CN(C(C)(C)C)C[C@@]2(F)C(=O)N2CCC(c3ccc(C(F)(F)F)cc3N3CCC(C(=O)O)CC3)CC2)c(F)c1 [Example 75] | 0.057 µM | 111% |
| COC[C@H]1CN(C(=O)[C@]2(F)CN([C@H]3CC[C@H](OC)CC3)C[C@H]2c2ccc(OC)cc2)C[C@@H]1c1ccc(C(F)(F)F)cc1N1CCC(C)(C(=O)O)CC1 [Example 103] | 0.014 µM | 102% |
| COC[C@@H]1C[C@@H](c2ccc(C(F)(F)F)cc2N2CCC(C(=O)O)CC2)CN1C(=O)[C@]1(F)CN(C2CCCC2)C[C@H]1c1ccc(OC)cc1 [Example 134] | 0.00045 µM | 96% |
| COC[C@H]1CN(C(=O)[C@]2(F)CN(C3CCCC3)C[C@H]2c2ccc(OC)cc2)C[C@@H]1c1ccc(C(F)(F)F)cc1N1CCC(C(=O)N(C)CC(=O)O)CC1 [Example 269] | 0.0067 µM | 73% |
| COc1ccc([C@@H]2CN(C(C)(C)C)C[C@@]2(F)C(=O)N2C[C@H](C(=O)N(C)C)[C@@H](c3ccc(C(F)(F)F)cc3N3CCC(C(=O)O)CC3)C2)cc1.Cl.Cl [Example 226, 1-{2-[(3S,4R)-1-{[(3R,4R)-1-tert-butyl-3-fluoro-4-(4-methoxyphenyl)pyrrolidin-3-yl]carbonyl}-4-(dimethylcarbamoyl)pyrrolidin-3-yl]-5-(trifluoromethyl)phenyl}piperidine-4-carboxylic acid dihydrochloride] | 0.047 µM | 132% |
